# Measured values: ChEMBL document CHEMBL1147193, “New 5-substituted thiazolo[3,2-b][1,2,4]triazol-6-ones: synthesis and anticancer evaluation” (2007)
# Assays:
# Format in all cases: functional
# [1] = tested on: RPMI-8226; test: Growth inhibition of human RPMI8226 cells after 48 hrs by SRB protein assay; conditions: RPMI-8226, 48 h
# [2] = tested on: MCF7; test: Growth inhibition of human MCF7 cells after 48 hrs by SRB protein assay; conditions: MCF7, 48 h
# [3] = tested on: HCT-15; test: Growth inhibition of human HCT15 cells after 48 hrs by SRB protein assay; conditions: HCT-15, 48 h
# [4] = tested on: HCT-116; test: Growth inhibition of human HCT116 cells after 48 hrs by SRB protein assay; conditions: HCT-116, 48 h
# [5] = tested on: RXF 393; test: Growth inhibition of human RXF393 cells after 48 hrs by SRB protein assay; conditions: RXF 393, 48 h
# [6] = tested on: OVCAR-5; test: Growth inhibition of human OVCAR5 cells after 48 hrs by SRB protein assay; conditions: OVCAR-5, 48 h
# [7] = tested on: UACC-257; test: Growth inhibition of human UACC257 cells after 48 hrs by SRB protein assay; conditions: UACC-257, 48 h
# [8] = Growth inhibition of human MDA-MB-231/ATCC cells after 48 hrs by SRB protein assay; conditions: MDA-MB-231, 48 h
# [9] = tested on: BT-549; test: Growth inhibition of human BT549 cells after 48 hrs by SRB protein assay; conditions: BT-549, 48 h
# [10] = tested on: M14; test: Growth inhibition of human M14 cells after 48 hrs by SRB protein assay; conditions: M14, 48 h
# [11] = tested on: 786-0; test: Growth inhibition of human 786-0 cells after 48 hrs by SRB protein assay; conditions: 786-0, 48 h
# [12] = tested on: LOX IMVI; test: Growth inhibition of human LOX IMVI cells after 48 hrs by SRB protein assay
# [13] = tested on: SF-295; test: Growth inhibition of human SF295 cells after 48 hrs by SRB protein assay; conditions: SF-295, 48 h
# [14] = tested on: SN12C; test: Growth inhibition of human SN12C cells after 48 hrs by SRB protein assay
# [15] = tested on: UO-31; test: Growth inhibition of human UO31 cells after 48 hrs by SRB protein assay; conditions: UO-31, 48 h
# [16] = tested on: SF-268; test: Anticancer activity against human SF268 cells assessed as growth of cells at 100 uM relative to untreated cells
# [17] = tested on: KM12; test: Growth inhibition of human KM12 cells after 48 hrs by SRB protein assay; conditions: KM12, 48 h
# [18] = tested on: NCI-H460; test: Anticancer activity against human NCI-H460 cells assessed as growth of cells at 100 uM relative to untreated cells
# [19] = tested on: Hs-578T; test: Growth inhibition of human HS578T cells after 48 hrs by SRB protein assay
# [20] = tested on: NCI-H226; test: Growth inhibition of human NCI-H226 cells after 48 hrs by SRB protein assay; conditions: NCI-H226, 48 h
# [21] = tested on: MCF7; test: Anticancer activity against human MCF7 cells assessed as growth of cells at 100 uM relative to untreated cells
# [22] = tested on: U-251; test: Growth inhibition of human U251 cells after 48 hrs by SRB protein assay; conditions: U-251, 48 h
# [23] = tested on: SK-MEL-2; test: Growth inhibition of human SK-MEL-2 cells after 48 hrs by SRB protein assay; conditions: SK-MEL-2, 48 h
# [24] = Growth inhibition of human MALME 3M cells after 48 hrs by SRB protein assay
# [25] = tested on: K562; test: Growth inhibition of human K562 cells after 48 hrs by SRB protein assay; conditions: K562, 48 h
# [26] = tested on: NCI/ADR-RES; test: Growth inhibition of human NCI/ADR-RES cells after 48 hrs by SRB protein assay
# [27] = tested on: SF-268; test: Growth inhibition of human SF268 cells after 48 hrs by SRB protein assay; conditions: SF-268, 48 h
# [28] = tested on: A549; test: Growth inhibition of human A549/ATCC cells after 48 hrs by SRB protein assay; conditions: A549, 48 h
# [29] = tested on: HT-29; test: Growth inhibition of human HT29 cells after 48 hrs by SRB protein assay; conditions: HT-29, 48 h
# [30] = tested on: OVCAR-8; test: Growth inhibition of human OVCAR8 cells after 48 hrs by SRB protein assay; conditions: OVCAR-8, 48 h
# [31] = tested on: NCI-H522; test: Growth inhibition of human NCI-H522 cells after 48 hrs by SRB protein assay; conditions: NCI-H522, 48 h
# [32] = tested on: OVCAR-3; test: Growth inhibition of human OVCAR-3 cells after 48 hrs by SRB protein assay; conditions: OVCAR-3, 48 h
# [33] = tested on: OVCAR-4; test: Growth inhibition of human OVCAR4 cells after 48 hrs by SRB protein assay; conditions: OVCAR-4, 48 h
# [34] = tested on: CAKI-1; test: Growth inhibition of human CAKI1 cells after 48 hrs by SRB protein assay; conditions: CAKI-1, 48 h
# [35] = tested on: HOP-92; test: Growth inhibition of human HOP92 cells after 48 hrs by SRB protein assay; conditions: HOP-92, 48 h
# [36] = tested on: ACHN; test: Growth inhibition of human ACHN cells after 48 hrs by SRB protein assay
# [37] = tested on: SK-MEL-5; test: Growth inhibition of human SK-MEL-5 cells after 48 hrs by SRB protein assay; conditions: SK-MEL-5, 48 h
# [38] = tested on: HCC 2998; test: Growth inhibition of human HCC2998 cells after 48 hrs by SRB protein assay; conditions: HCC 2998, 48 h
# [39] = tested on: PC-3; test: Growth inhibition of human PC3 cells after 48 hrs by SRB protein assay; conditions: PC-3, 48 h
# [40] = tested on: UACC-62; test: Growth inhibition of human UACC62 cells after 48 hrs by SRB protein assay; conditions: UACC-62, 48 h
compound,measurement,setting,value
O=C(CC1Sc2ncnn2C1=O)Nc1ccc(Br)cc1 (configuration not stated),GI50,[1],23.4 µM
same,TGI,[1]; read-out: Log TGI (converted),64.6 µM
same,GI50,[2],26.9 µM
same,TGI,[2]; read-out: Log TGI (converted),74.1 µM
same,GI50,[3],14.8 µM
same,TGI,[3]; read-out: Log TGI (converted),28.2 µM
same,GI50,[4],15.8 µM
same,TGI,[4]; read-out: Log TGI (converted),29.5 µM
same,GI50,[5],12.9 µM
same,TGI,[5]; read-out: Log TGI (converted),31.6 µM
same,GI50,[6],16.2 µM
same,TGI,[6]; read-out: Log TGI (converted),29.5 µM
same,GI50,[7],17.4 µM
same,TGI,[7]; read-out: Log TGI (converted),33.1 µM
same,GI50,[8],17 µM
same,TGI,[8]; read-out: Log TGI (converted),36.3 µM
same,GI50,[9],> 100 µM
same,TGI,[9]; read-out: Log TGI (converted),> 100 µM
same,GI50,[10],15.8 µM
same,TGI,[10]; read-out: Log TGI (converted),29.5 µM
same,GI50,[11],16.6 µM
same,TGI,[11]; read-out: Log TGI (converted),30.2 µM
same,GI50,[12],16.2 µM
same,TGI,[12]; read-out: Log TGI (converted),31.6 µM
same,GI50,[13],> 100 µM
same,TGI,[13]; read-out: Log TGI (converted),> 100 µM
same,GI50,[14],22.9 µM
same,TGI,[14]; read-out: Log TGI (converted),63.1 µM
same,GI50,[15],18.6 µM
same,TGI,[15]; read-out: Log TGI (converted),38 µM
same,Activity,[16],100%
same,GI50,[17],> 100 µM
same,TGI,[17]; read-out: Log TGI (converted),> 100 µM
same,Activity,[18],0%
same,GI50,[19],7.24 µM
same,TGI,[19]; read-out: Log TGI (converted),20 µM
same,GI50,[20],20 µM
same,TGI,[20]; read-out: Log TGI (converted),45.7 µM
same,Activity,[21],0%
same,GI50,[22],16.6 µM
same,TGI,[22]; read-out: Log TGI (converted),31.6 µM
same,GI50,[23],66.1 µM
same,TGI,[23]; read-out: Log TGI (converted),> 100 µM
same,GI50,[24],14.5 µM
same,TGI,[24]; read-out: Log TGI (converted),31.6 µM
same,GI50,[25],26.3 µM
same,TGI,[25]; read-out: Log TGI (converted),79.4 µM
same,GI50,[26],25.1 µM
same,TGI,[26]; read-out: Log TGI (converted),70.8 µM
same,GI50,[27],> 100 µM
same,TGI,[27]; read-out: Log TGI (converted),> 100 µM
same,GI50,[28],35.5 µM
same,TGI,[28]; read-out: Log TGI (converted),> 100 µM
same,GI50,[29],28.2 µM
same,TGI,[29]; read-out: Log TGI (converted),> 100 µM
same,GI50,[30],18.2 µM
same,TGI,[30]; read-out: Log TGI (converted),38 µM
same,GI50,[31],20.4 µM
same,TGI,[31]; read-out: Log TGI (converted),57.5 µM
same,GI50,[32],20 µM
same,TGI,[32]; read-out: Log TGI (converted),37.2 µM
same,GI50,[33],31.6 µM
same,TGI,[33]; read-out: Log TGI (converted),> 100 µM
same,GI50,[34],20.4 µM
same,TGI,[34]; read-out: Log TGI (converted),43.7 µM
same,GI50,[35],22.4 µM
same,TGI,[35]; read-out: Log TGI (converted),49 µM
same,GI50,[36],15.1 µM
same,TGI,[36]; read-out: Log TGI (converted),28.2 µM
same,GI50,[37],18.6 µM
same,TGI,[37]; read-out: Log TGI (converted),38.9 µM
same,GI50,[38],> 100 µM
same,TGI,[38]; read-out: Log TGI (converted),> 100 µM
same,GI50,[39],26.9 µM
same,TGI,[39]; read-out: Log TGI (converted),95.5 µM
same,GI50,[40],> 100 µM
same,TGI,[40]; read-out: Log TGI (converted),> 100 µM
